Measured values reported in patent publication US20220096664A1, “STABILIZED FORMULATIONS CONTAINING IODINATED CONTRAST AGENTS AND CYCLODEXTRINS” (Verrow Pharmaceuticals, Inc., priority 2012, published 2022).
Like-named read-outs stand apart in the source and are kept apart here.

Columns and labels:
[1] = type: physicochemical; settings: for Iodide formed: 50 mM agent, 10 mM TRIS, pH 7.4, autoclaved then UV 18 h; for percent change in iodide degradants, UV: 24 h; for percent change in iodide degradants, UV / percent change in iodide degradants, VIS: pH 7.1; for percent change in iodide degradants, VIS: 72 h
[2] = Photostability: iodide formed after UV light irradiation; type: physicochemical; settings: 18 h, 50 mM
Description: Aqueous solutions comprising iodinated contrast agents were prepared and evaluated in a photolysis chamber as described in the ICH guidance document, Q1B Photostability Testing of New Drug Substances and Products, available from the US Food and Drug Administration, incorporated herein by reference. The solutions were placed in 1 cm×1 cm (3 mL) quartz cuvettes having 2 clear sides and 2 sides etched. Lids were placed on the cuvettes and sealed with a wrap of Parafilm® around the joint. The cuvettes were placed in a photolysis chamber, upright on a flat surface beneath and centered between two horizontal 24 inch fluorescent lamps, (GE, black light F20T12, 20 watt for ultraviolet, or Philips F20T12/CW, 20 watt for visible) placed 6 cm apart. The cuvettes were positioned such that their two clear sides were facing the two lamps.
Cuvettes were spaced ˜2 cm from each other, and no closer than 15 cm from the ends of the lamps. This positioning allowed reproducible light exposure to all cuvettes.
The lamps were switched on and the solutions irradiated for 18 to 24 hours for the ultraviolet (UV) lamps or 72 to 90 hours for the visible (VIS) light lamps. At the end of the selected irradiation time, the cuvettes were removed from the photolysis chamber and mixed by inversion 2-times. The caps were then removed and 40 microliter aliquots taken and diluted with 1 mL of an aqueous solution containing ˜0.9 mg/mL sodium thiosulfate. The thiosulfate solution converted any I2, IO3^−, and I3^− present in the solution tor such that total iodine species could be determined in one assay.
The diluted solutions were assayed by high pressure liquid chromatography (HPLC) using a 4.6×250 mm, C-18, 5 micron particle size, reversed phase column with detection at 280 nm for the contrast agent and 230 nm for the thiosulfate and the iodide ion (r). A mobile phase of 30:70 methanol:aqueous buffer (50 mM KH2PO4+7 mL/L 40% tetrabutyl ammonium hydroxide) at 0.75 mL/min was used for elution. Injection volume was 20 microliters. External standards were prepared containing each contrast agent, potassium iodide, and sodium thiosulfate solution and analyzed along with the irradiated samples. The results were reported as weight percentage iodide formed (mg iodide/mg contrast agent times 100).
The absorbance readings at 400 nm due to light exposure were plotted against time of exposure and the resulting correlation used to determine the UV and VIS light exposure. A change in absorbance reading of 0.45 was assumed equivalent to 200 watt hours/square meter for the UV light and a change of 0.51 was assumed equivalent to 1.2 million lux hours for the VIS light. The UV lamps provided 6.62 watts/square meter and the VIS lamps provided 7180 lux.
Aqueous solutions were prepared containing 50 mM contrast agent by diluting commercially available solutions with water. Tromethamine HCl buffer (TRIS), was added to solutions as necessary to increase the TRIS content to that of the commercial product before dilution.
SCD was added to the solutions at various mole ratios and the pH of the solutions adjusted to 7.4 with 0.1N hydrochloric acid or 0.1N sodium hydroxide. The solutions were irradiated with UV light for 18 hours (119 watt hours/m^2) then processed, analyzed and reported as in Example 2. The SCDs evaluated were sulfobutyl ether beta-cyclodextrin with an average degree of substitution of 7 (SBE-704CD), and two 2-hydroxypropyl beta-cyclodextrin derivatives having 6.3 (HP-6.3n/CD) and 4.3 (HP-4.3-βCD) average degrees of substitution.
Aqueous solutions were prepared containing 50 mM contrast agent by diluting commercially available solutions with distilled water. Tromethamine HCl buffer (TRIS), was added to some solutions to increase the buffer content.
The solutions were divided and SBE-7-CD added to one aliquot at a contrast agent:SCD mole ratio of 1:1. The pH of the solutions was adjusted to 5, 6, 7, 7.4 or 8 with 0.1N hydrochloric acid or sodium hydroxide. […]

O=C(NCC(O)CO)c1c(I)c(C(=O)NCC(O)CO)c(I)c(N(CCO)C(=O)CO)c1I (stereo not drawn) [Ioversol, ioversol]
Iodide formed ([1]; agent:SBE7-β-CD 1:0.1): 0.545 wt % | Iodide formed ([1]; no SCD (1:0)): 0.665 wt % | percent change in iodide degradants formed in the presence of the SCD ([1]; 18 h, 50 mM, pH 7.4): (−18%) | percent change in iodide degradants, UV ([1]; 160 mg I/mL): (−24.0%) | percent change in iodide degradants, UV ([1]; 240 mg I/mL): (−19.2%) | percent change in iodide degradants, UV ([1]; 300 mg I/mL): (−17.2%) | percent change in iodide degradants, UV ([1]; 320 mg I/mL): (−36.7%) | percent change in iodide degradants, UV ([1]; 350 mg I/mL): (−26.8%) | percent change in iodide degradants, VIS ([1]; 160 mg I/mL): (−9.9%) | percent change in iodide degradants, VIS ([1]; 240 mg I/mL): (−11.9%) | percent change in iodide degradants, VIS ([1]; 300 mg I/mL): (−17.4%) | percent change in iodide degradants, VIS ([1]; 320 mg I/mL): (−14.2%) | percent change in iodide degradants, VIS ([1]; 350 mg I/mL): (−11.7%) | Iodide Formed, UV ([1]; Ioversol 160 mg I/mL, pH 7.1, agent:SBE7CD 1:0.05, autoclaved then UV 24 h): 0.171 wt % | Iodide Formed, VIS ([1]; Ioversol 160 mg I/mL, pH 7.1, agent:SBE7CD 1:0.05, autoclaved then VIS 72 h): 0.0646 wt % | Iodide Formed, UV ([1]; Ioversol 160 mg I/mL, pH 7.1, no SCD (1:0), autoclaved then UV 24 h): 0.225 wt % | Iodide Formed, VIS ([1]; Ioversol 160 mg I/mL, pH 7.1, no SCD (1:0), autoclaved then VIS 72 h): 0.0717 wt % | Iodide Formed, UV ([1]; Ioversol 240 mg I/mL, pH 7.1, agent:SBE7CD 1:0.05, autoclaved then UV 24 h): 0.126 wt % | Iodide Formed, VIS ([1]; Ioversol 240 mg I/mL, pH 7.1, agent:SBE7CD 1:0.05, autoclaved then VIS 72 h): 0.0400 wt % | Iodide Formed, UV ([1]; Ioversol 240 mg I/mL, pH 7.1, no SCD (1:0), autoclaved then UV 24 h): 0.156 wt % | Iodide Formed, VIS ([1]; Ioversol 240 mg I/mL, pH 7.1, no SCD (1:0), autoclaved then VIS 72 h): 0.0454 wt % | Iodide Formed, UV ([1]; Ioversol 300 mg I/mL, pH 7.1, agent:SBE7CD 1:0.05, autoclaved then UV 24 h): 0.111 wt % | Iodide Formed, VIS ([1]; Ioversol 300 mg I/mL, pH 7.1, agent:SBE7CD 1:0.05, autoclaved then VIS 72 h): 0.0298 wt % | Iodide Formed, UV ([1]; Ioversol 300 mg I/mL, pH 7.1, no SCD (1:0), autoclaved then UV 24 h): 0.134 wt % | Iodide Formed, VIS ([1]; Ioversol 300 mg I/mL, pH 7.1, no SCD (1:0), autoclaved then VIS 72 h): 0.0361 wt % | Iodide Formed, UV ([1]; Ioversol 320 mg I/mL, pH 7.1, agent:SBE7CD 1:0.05, autoclaved then UV 24 h): 0.0778 wt % | Iodide Formed, VIS ([1]; Ioversol 320 mg I/mL, pH 7.1, agent:SBE7CD 1:0.05, autoclaved then VIS 72 h): 0.0277 wt % | Iodide Formed, UV ([1]; Ioversol 320 mg I/mL, pH 7.1, no SCD (1:0), autoclaved then UV 24 h): 0.123 wt % | Iodide Formed, VIS ([1]; Ioversol 320 mg I/mL, pH 7.1, no SCD (1:0), autoclaved then VIS 72 h): 0.0323 wt % | Iodide Formed, UV ([1]; Ioversol 350 mg I/mL, pH 7.1, agent:SBE7CD 1:0.05, autoclaved then UV 24 h): 0.0864 wt % | Iodide Formed, VIS ([1]; Ioversol 350 mg I/mL, pH 7.1, agent:SBE7CD 1:0.05, autoclaved then VIS 72 h): 0.0250 wt % | Iodide Formed, UV ([1]; Ioversol 350 mg I/mL, pH 7.1, no SCD (1:0), autoclaved then UV 24 h): 0.118 wt % | Iodide Formed, VIS ([1]; Ioversol 350 mg I/mL, pH 7.1, no SCD (1:0), autoclaved then VIS 72 h): 0.0283 wt % | % Change in iodide degradants formed in the presence of the SCD ([2]; pH 5): −43.6% | % Change in iodide degradants formed in the presence of the SCD ([2]; pH 7.4): −58.5% | % Change in iodide degradants formed in the presence of the SCD ([2]; pH 8): −47%
